Measurements: ChEMBL document CHEMBL1124736, “Novel quinuclidine-based ligands for the muscarinic cholinergic receptor” (J Med Chem, 1990)

Key:
[1] = Log of the ratio of Kapp([3H]-NMS)/Kapp([3H]-OXO-M) was determined
[2] = target: T1, Muscarinic acetylcholine receptor (Rattus norvegicus) (UniProt P08482+P08483+P08485+P08911+P10980)
Description: In vitro for its ability to displace [3H]NMS from muscarinic acetylcholine receptor in rat cortical homogenates

[3] = target: T1, Muscarinic acetylcholine receptor (Rattus norvegicus); remark: listed apart in the source
Description: In vitro displacement of [3H]OXO-M from muscarinic acetylcholine receptor in rat cortical homogenates

[4] = target: T1, Muscarinic acetylcholine receptor (Rattus norvegicus); assay: Compound was tested in vitro for its ability to displace [3H]OXO-M from Muscarinic acetylcholine receptor in rat cortical homogenates

Row | Structure (SMILES) | Log ratio [1] | K app [2] | K app [3] | K app [4]
1 | Cc1nc(C2CN3CCC2CC3)no1 (configuration not stated) | 1.73 | 2.9 µM | 0.054 µM | –
2 | Cc1noc(C2=CCCN(C)C2)n1 | – | 1.8 µM | 0.0046 µM | –
3 | Clc1noc(C2CN3CCC2CC3)n1 (configuration not stated) | 2.6 | 0.19 µM | 0.00048 µM | –
4 | Cc1cnc(C2CN3CCC2CC3)o1 (configuration not stated) | – | 0.73 µM | 0.04 µM | –
5 | COC(=O)C1CN2CCC1CC2 (configuration not stated) | – | 8.6 µM | 0.023 µM | –
6 | Cc1noc(C2CN3CCC2CC3)n1 (configuration not stated) | 2.69 | – | – | 0.0009 µM
7 | CN(C)c1noc(C2CN3CCC2CC3)n1 (configuration not stated) | – | 0.2 µM | 0.021 µM | –
8 | Cc1coc(C2CN3CCC2CC3)c1 (configuration not stated) | 1.18 | 1.4 µM | 0.057 µM | –
9 | C[N+]12CCC(CC1)C(c1nc(N)no1)C2 (configuration not stated) | – | 6.6 µM | 0.079 µM | –
10 | Brc1noc(C2CN3CCC2CC3)n1 (configuration not stated) | – | 0.19 µM | 0.0011 µM | –
11 | c1ccc(Cc2noc(C3CN4CCC3CC4)n2)cc1 (configuration not stated) | – | 0.07 µM | 0.021 µM | –
12 | N#Cc1noc(C2CN3CCC2CC3)n1 (configuration not stated) | – | 2.6 µM | 0.043 µM | –
13 | CCc1noc(C2CN3CCC2CC3)n1 (configuration not stated) | – | 0.096 µM | 0.0056 µM | –
14 | OC(c1ccccc1)(c1ccccc1)c1noc(C2CN3CCC2CC3)n1 (configuration not stated) | – | 0.00012 µM | 6.7e-05 µM | –
15 | CNc1noc(C2CN3CCC2CC3)n1 (configuration not stated) | – | 2 µM | 0.053 µM | –
16 | c1coc(C2CN3CCC2CC3)n1 (configuration not stated) | – | 6.7 µM | 0.038 µM | –
17 | Cc1cc(C2CN3CCC2CC3)on1 (configuration not stated) | 1.59 | 1.4 µM | 0.036 µM | –
18 | Cc1coc(C2CN3CCC2CC3)n1 (configuration not stated) | 1.72 | 1.4 µM | 0.027 µM | –
19 | CC(=O)Nc1noc(C2CN3CCC2CC3)n1 (configuration not stated) | – | 23 µM | 0.12 µM | –
20 | Nc1noc(C2CN3CCC2CC3)n1 (configuration not stated) | 3.08 | – | 0.0005 µM | –
21 | Cc1nnc(C2CN3CCC2CC3)o1 (configuration not stated) | 2.11 | 7.5 µM | 0.06 µM | –
22 | NC(=O)c1noc(C2CN3CCC2CC3)n1 (configuration not stated) | – | 39 µM | 1.7 µM | –
23 | COc1noc(C2CN3CCC2CC3)n1 (configuration not stated) | – | 0.52 µM | 0.014 µM | –
24 | Cc1ccc(C2CN3CCC2CC3)o1 (configuration not stated) | 1.28 | 0.25 µM | 0.013 µM | –
25 | Cc1noc(C2=CN3CCC2CC3)n1 | – | 15 µM | 0.4 µM | –
